# Literature values as cited in US8338613B2, “Process for the preparation of bidentate schiff base ruthenium catalysts containing a salicylaldimine-type ligand” (RIMTEC Corporation, priority 2009, dated 2012).
# Settings: in water (for Ag2CO3)
row,pKb,Structure (SMILES)
1,about 3.69,O=C([O-])[O-].[Na+].[Na+] [Na2CO3]
2,about 3.69,O=C([O-])[O-].[Cu+2] [CuCO3]
3,about 3.69,O=C([O-])[O-].[K+].[K+] [K2CO3]
4,about 3.69,O=C([O-])[O-].[Li+].[Li+] [Li2CO3]
